Laboratory results as given in PubChem BioAssay AID256 (DTP/NCI, 2004).
Several values for one entry are separate records, joined by “and”; a condition that tells them apart may be missing. Equal values may be shown once. Toxic doses and inconclusive results are not listed.

Tested on: CD2F1 mice, L1210 leukemia ip, survival T/C
Assay: NCI In Vivo Anticancer Drug Screen. Data for tumor model L1210 Leukemia (intraperitoneal) in CD2F1 (CDF1) mice
Settings: higher = longer survival
How it was run: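 Tumor-bearing mice (transplanted tumor) were split into treated and vehicle control groups, and the measured endpoint of each treated group was divided by that of its vehicle controls.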

[1] = endpoint: mean survival time, dose: 100.0 mg/kg/injection, schedule: Q01DX009 (ip), vehicle: saline
[2] = endpoint: mean survival time, dose: 100.0 mg/kg/injection, schedule: Q04DX003 (ip), vehicle: saline
[3] = endpoint: mean survival time, dose: 200.0 mg/kg/injection, schedule: Q04DX003 (ip), vehicle: saline
[4] = endpoint: mean survival time, dose: 400.0 mg/kg/injection, schedule: Q04DX003 (ip), vehicle: saline
[5] = endpoint: mean survival time, dose: 100.0 mg/kg/injection, schedule: Q04DX002 (ip), vehicle: saline
[6] = endpoint: mean survival time, dose: 100.0 mg/kg/injection, schedule: Q04DX003 (ip), vehicle: saline with Tween-80
[7] = endpoint: mean survival time, dose: 200.0 mg/kg/injection, schedule: Q04DX003 (ip), vehicle: saline with Tween-80
[8] = endpoint: mean survival time, dose: 400.0 mg/kg/injection, schedule: Q04DX003 (ip), vehicle: saline with Tween-80
[9] = endpoint: mean survival time, dose: 100.0 mg/kg/injection, schedule: Q01DX001 (ip), vehicle: saline with Tween-80
[10] = endpoint: mean survival time, dose: 200.0 mg/kg/injection, schedule: Q01DX001 (ip), vehicle: saline with Tween-80
[11] = endpoint: mean survival time, dose: 400.0 mg/kg/injection, schedule: Q01DX001 (ip), vehicle: saline with Tween-80
[12] = endpoint: median survival time, dose: 50.0 mg/kg/injection, schedule: Q01DX005 (ip), vehicle: saline with Tween-80
[13] = endpoint: median survival time, dose: 100.0 mg/kg/injection, schedule: Q01DX005 (ip), vehicle: saline with Tween-80
[14] = endpoint: median survival time, dose: 200.0 mg/kg/injection, schedule: Q01DX005 (ip), vehicle: saline with Tween-80
[15] = endpoint: mean survival time, dose: 50.0 mg/kg/injection, schedule: Q04DX002 (ip), vehicle: saline with Tween-80

SMILES: CCc1ccc(N=Nc2ccc(N(C)C)cc2)cc1CC
- T/C (endpoint: mean survival time, dose: 75.0 mg/kg/injection, schedule: Q04DX002 (ip), vehicle: saline with Tween-80): 92 % of control
- T/C (endpoint: mean survival time, dose: 150.0 mg/kg/injection, schedule: Q04DX002 (ip), vehicle: saline with Tween-80): 92 % of control
- T/C (endpoint: mean survival time, dose: 300.0 mg/kg/injection, schedule: Q04DX002 (ip), vehicle: saline with Tween-80): 88 % of control

SMILES: CSc1nc(NN)n2nccc2n1
- T/C (endpoint: median survival time, dose: 50.0 mg/kg/injection, schedule: Q01DX005 (ip), vehicle: saline): 104 % of control
- T/C (endpoint: median survival time, dose: 100.0 mg/kg/injection, schedule: Q01DX005 (ip), vehicle: saline): 103 % of control

SMILES: OCC(O)COCc1ccccc1 (stereo not given)
- T/C [1]: 94 % of control
- T/C (endpoint: mean survival time, dose: 200.0 mg/kg/injection, schedule: Q01DX009 (ip), vehicle: saline): 94 % of control
- T/C (endpoint: mean survival time, dose: 400.0 mg/kg/injection, schedule: Q01DX009 (ip), vehicle: saline): 96 % of control

SMILES: Cc1ccc(S(=O)(=O)[n+]2ccccc2)cc1
- T/C [2]: 97 % of control
- T/C [3]: 103 % of control
- T/C [4]: 95 % of control

SMILES: CCCCCCC(O)C/C=C\CCCCCCCC(=O)O (stereo not given)
- T/C (endpoint: mean survival time, dose: 50.0 mg/kg/injection, schedule: Q04DX002 (ip), vehicle: saline): 86 % of control
- T/C [5]: 90 % of control

SMILES: Cc1cc(C(O)CNCCCn2c(N3CCOCC3)nc3c2c(=O)n(C)c(=O)n3C)ccc1O (stereo not given)
- T/C (endpoint: mean survival time, dose: 12.5 mg/kg/injection, schedule: Q01DX005 (ip), vehicle: water): 96 % of control
- T/C (endpoint: mean survival time, dose: 25.0 mg/kg/injection, schedule: Q01DX005 (ip), vehicle: water): 97 % of control
- T/C (endpoint: mean survival time, dose: 50.0 mg/kg/injection, schedule: Q01DX005 (ip), vehicle: water): 97 % of control
- T/C (endpoint: mean survival time, dose: 100.0 mg/kg/injection, schedule: Q01DX005 (ip), vehicle: water): 96 % of control
- T/C (endpoint: mean survival time, dose: 200.0 mg/kg/injection, schedule: Q01DX005 (ip), vehicle: water): 100 % of control

SMILES: Nc1nc(N)c2nc(CNc3ccc(C(=O)NC(CCC(=O)NC(CCC(=O)O)C(=O)O)C(=O)O)cc3)cnc2n1 (stereo not given)
- T/C (endpoint: mean survival time, dose: 0.7 mg/kg/injection, schedule: Q01DX009 (ip), vehicle: sodium bicarbonate): 96 % of control
- T/C (endpoint: mean survival time, dose: 1.1 mg/kg/injection, schedule: Q01DX009 (ip), vehicle: sodium bicarbonate): 92 % of control

SMILES: CNC(=O)Oc1cccc(NC(=O)OCc2ccccc2)c1
- T/C [6]: 99 % of control
- T/C [7]: 96 % of control
- T/C [8]: 92 % of control

SMILES: COc1cc2c(cc1C(C)C)CCC1C(C)(C(=O)O)CCCC21C (stereo not given)
- T/C [9]: 100 % of control
- T/C (endpoint: mean survival time, dose: 100.0 mg/kg/injection, schedule: Q01DX009 (ip), vehicle: saline sonified): 95 % of control
- T/C [10]: 97 % of control
- T/C (endpoint: mean survival time, dose: 200.0 mg/kg/injection, schedule: Q01DX009 (ip), vehicle: saline sonified): 97 % of control
- T/C [11]: 102 % of control
- T/C (endpoint: mean survival time, dose: 400.0 mg/kg/injection, schedule: Q01DX009 (ip), vehicle: saline sonified): 96 % of control

SMILES: O=c1[nH]cc(CCCc2ccccc2)c(=O)[nH]1
- T/C [6]: 97 % of control
- T/C [7]: 99 % of control
- T/C [8]: 90 % of control

SMILES: [Cl][Pt+2]([Cl])([Cl])[Cl].[NH-]CC1(C[NH-])CCCC1
- T/C (endpoint: median survival time, dose: 3.12 mg/kg/injection, schedule: Q04DX003 (ip), vehicle: saline): 171 % of control and 174 % of control
- T/C (endpoint: median survival time, dose: 6.25 mg/kg/injection, schedule: Q04DX003 (ip), vehicle: saline): 174 % of control and 217 % of control
- T/C (endpoint: median survival time, dose: 12.5 mg/kg/injection, schedule: Q04DX003 (ip), vehicle: saline): 280 % of control and 109 % of control
- T/C (endpoint: median survival time, dose: 25.0 mg/kg/injection, schedule: Q04DX003 (ip), vehicle: saline): 174 % of control

SMILES: CS(=O)CCO (stereo not given)
- T/C [5]: 93 % of control
- T/C (endpoint: mean survival time, dose: 200.0 mg/kg/injection, schedule: Q04DX002 (ip), vehicle: saline): 107 % of control
- T/C (endpoint: mean survival time, dose: 400.0 mg/kg/injection, schedule: Q04DX002 (ip), vehicle: saline): 104 % of control

SMILES: O=C1N(C2CCCCC2)CC2C(c3ccccc3)N(c3ccccc3)NC12O (stereo not given)
- T/C [9]: 92 % of control
- T/C (endpoint: mean survival time, dose: 100.0 mg/kg/injection, schedule: Q01DX009 (ip), vehicle: saline with Tween-80): 97 % of control
- T/C [10]: 91 % of control
- T/C (endpoint: mean survival time, dose: 200.0 mg/kg/injection, schedule: Q01DX009 (ip), vehicle: saline with Tween-80): 98 % of control
- T/C [11]: 88 % of control
- T/C (endpoint: mean survival time, dose: 400.0 mg/kg/injection, schedule: Q01DX009 (ip), vehicle: saline with Tween-80): 108 % of control

SMILES: CC(C)(C)c1ccc(C(=O)N2CCOC23CCCCC3)cc1
- T/C [12]: 101 % of control and 104 % of control
- T/C [13]: 96 % of control and 104 % of control
- T/C [14]: 98 % of control and 101 % of control
- T/C (endpoint: median survival time, dose: 400.0 mg/kg/injection, schedule: Q01DX005 (ip), vehicle: saline with Tween-80): 100 % of control
- T/C (endpoint: median survival time, dose: 800.0 mg/kg/injection, schedule: Q01DX005 (ip), vehicle: saline with Tween-80): 96 % of control and 101 % of control

SMILES: CC(C)=CCCC(C)CCN(C)C (stereo not given)
- T/C (endpoint: mean survival time, dose: 25.0 mg/kg/injection, schedule: Q01DX009 (ip), vehicle: saline): 94 % of control
- T/C (endpoint: mean survival time, dose: 50.0 mg/kg/injection, schedule: Q01DX009 (ip), vehicle: saline): 94 % of control
- T/C [1]: 93 % of control
- T/C [2]: 93 % of control

SMILES: CSc1nc(NC2OCC(O)C(O)C2O)c(C(C)=O)c(=O)n1C (stereo not given)
- T/C (endpoint: median survival time, dose: 12.5 mg/kg/injection, schedule: Q01DX005 (ip), vehicle: saline with Tween-80): 97 % of control
- T/C (endpoint: median survival time, dose: 25.0 mg/kg/injection, schedule: Q01DX005 (ip), vehicle: saline with Tween-80): 98 % of control
- T/C [12]: 96 % of control
- T/C [13]: 89 % of control
- T/C [14]: 94 % of control

SMILES: C=CC(C)n1c(=O)c2c(ncn2C)n(C)c1=O (stereo not given)
- T/C (endpoint: mean survival time, dose: 0.78 mg/kg/injection, schedule: Q04DX003 (ip), vehicle: saline with Tween-80): 102 % of control
- T/C (endpoint: mean survival time, dose: 1.56 mg/kg/injection, schedule: Q04DX003 (ip), vehicle: saline with Tween-80): 102 % of control
- T/C (endpoint: mean survival time, dose: 3.12 mg/kg/injection, schedule: Q04DX003 (ip), vehicle: saline with Tween-80): 105 % of control

SMILES: N#CC(c1c[nH]c2ccccc12)N1CCOCC1 (stereo not given)
- T/C (endpoint: mean survival time, dose: 25.0 mg/kg/injection, schedule: Q04DX002 (ip), vehicle: saline with Tween-80): 105 % of control
- T/C [15]: 100 % of control

SMILES: C/C(=N\O)c1ccc2ccc3ccccc3c2c1
- T/C (endpoint: mean survival time, dose: 100.0 mg/kg/injection, schedule: Q01DX001 (ip), vehicle: saline): 100 % of control
- T/C [2]: 102 % of control
- T/C (endpoint: mean survival time, dose: 200.0 mg/kg/injection, schedule: Q01DX001 (ip), vehicle: saline): 95 % of control
- T/C [3]: 100 % of control
- T/C (endpoint: mean survival time, dose: 400.0 mg/kg/injection, schedule: Q01DX001 (ip), vehicle: saline): 100 % of control
- T/C [4]: 97 % of control

SMILES: CCCCCC(=O)C(CCCC)C(=O)Nc1ccccc1 (stereo not given)
- T/C [6]: 94 % of control
- T/C [7]: 96 % of control
- T/C [8]: 91 % of control

SMILES: C=CCCCCC(=O)c1ccccc1
- T/C [15]: 100 % of control
- T/C (endpoint: mean survival time, dose: 100.0 mg/kg/injection, schedule: Q04DX002 (ip), vehicle: saline with Tween-80): 93 % of control
- T/C (endpoint: mean survival time, dose: 200.0 mg/kg/injection, schedule: Q04DX002 (ip), vehicle: saline with Tween-80): 104 % of control

SMILES: COc1ccc(Cn2cnc3c(=S)nc[nH]c32)cc1
- T/C (endpoint: mean survival time, dose: 100.0 mg/kg/injection, schedule: Q01DX001 (ip), vehicle: Klucel (hydroxypropylcellulose) (HPC)): 91 % of control
- T/C (endpoint: mean survival time, dose: 200.0 mg/kg/injection, schedule: Q01DX001 (ip), vehicle: Klucel (hydroxypropylcellulose) (HPC)): 100 % of control
- T/C (endpoint: mean survival time, dose: 400.0 mg/kg/injection, schedule: Q01DX001 (ip), vehicle: Klucel (hydroxypropylcellulose) (HPC)): 94 % of control

SMILES: O.O=P(O)(O)O.[NH-]C1CCCCC1[NH-].[Pt+2] (stereo not given)
- T/C (endpoint: mean survival time, dose: 50.0 mg/kg/injection, schedule: Q04DX003 (ip), vehicle: water): 120 % of control

SMILES: O=C1NC(=O)C(c2ccccc2)(C2CCCC2)N1 (stereo not given)
- T/C (endpoint: mean survival time, dose: 50.0 mg/kg/injection, schedule: Q04DX003 (ip), vehicle: Klucel (hydroxypropylcellulose) (HPC)): 104 % of control
- T/C (endpoint: mean survival time, dose: 100.0 mg/kg/injection, schedule: Q04DX003 (ip), vehicle: Klucel (hydroxypropylcellulose) (HPC)): 98 % of control
- T/C (endpoint: mean survival time, dose: 200.0 mg/kg/injection, schedule: Q04DX003 (ip), vehicle: Klucel (hydroxypropylcellulose) (HPC)): 95 % of control

SMILES: CCCCNC(C)C1(O)Cc2c(O)c3c(c(O)c2C(OC2CC(N)C(O)C(C)O2)C1)C(=O)c1c(OC)cccc1C3=O (stereo not given)
- T/C (endpoint: mean survival time, dose: 10.0 mg/kg/injection, schedule: Q01DX009 (ip), vehicle: water): 121 % of control
- T/C (endpoint: mean survival time, dose: 160.0 mg/kg/injection, schedule: Q01DX009 (ip), vehicle: water): 119 % of control
